Here are results for five molecules from US9084826B2, “Fatty acid conjugates of statin and FXR agonists; compositions and method of uses” (Catabasis Pharmaceuticals, Inc., priority 2012, dated 2015).

Each structure is given as a SMILES string.

This test relates to PCSK9 secreted from HepG2 cells. As to the kind of experiment: PCSK9 secretion assay in HepG2 cells (PCSK9 ELISA). Type of test: cell-based. As to conditions: 16 hours incubation. As to the method:
HepG2 cells (from ATCC, Catalog no. HB-8065) were maintained in DMEM (Invitrogen) supplemented with 10% fetal bovine serum (Invitrogen). The day prior to the PCSK9 assay, cells were seeded in 96-well collagen coated plates at 25,000 cells/well.
The compounds of the invention were stored at −20° C. until used. The test article compound was dissolved in 100% ethanol to a 50 mM stock solution. This was then diluted in FBS to a final concentration of 1 mM. This solution was placed in a sonicating water bath for 30 minutes. Subsequent dilutions were then made in FBS supplemented with an equivalent volume of ethanol and mixed by vortexing.
HepG2 cells were seeded onto a collagen coated 96-well plate (Becton Dickinson, Catalog no. 35-4407) the day prior to the assay, as described above. The next day, the cell medium was removed, washed once with […] serum free DMEM to remove any residual PCSK9, and replaced with […] of serum free DMEM. Ten microliters of each compound concentration prepared in FBS was then added. Each concentration of compound was tested in triplicate. The compound was incubated with the cells overnight for 16 hours. Following this incubation, 10 µL of AlamarBlue was added to each well and cells incubated for another 2 hours. The plates were then removed and AlamarBlue fluorescence was measured (excitation, 550 nm and […]) to assess cell viability. Cell culture supernatant was then diluted […] 1× RD5P Calibrator Diluent and PCSK9 ELISA was then performed with […] of this diluted sample, as per the manufacturer's instructions. The ELISA was measured on a Victor X5 multilabel plate reader (PerkinElmer) at an absorbance of 450 nm with background correction measured at 550 nm (The PCSK9 Elisa kits can be purchased from R&D System, Catalog no. DPC900).
On the technique in general: ELISA stands for enzyme-linked immunosorbent assay.

Setting [1] is: two tested concentrations (6.25 and 25 μM).

For the molecule `CC/C=C\C/C=C\C/C=C\C/C=C\C/C=C\CCCC(=O)NCCNC(=O)C[C@H](O)C[C@H](O)/C=C/c1c(-c2ccc(F)cc2)nc(N(C)S(C)(=O)=O)nc1C(C)C` [Compound 1-43, (5Z,8Z,11Z,14Z,17Z)—N-(2-((3R,5S,E)-7-(4-(4-fluorophenyl)-6-isopropyl-2-(N-methylmethylsulfonamido)pyrimidin-5-yl)-3,5-dihydroxyhept-6-enamido)ethyl)icosa-5,8,11,14,17-pentaenamide], the “level of PCSK9 secreted from HepG2 cells” value under setting [1] was “did not cause an increase”.

Turning to `CC/C=C\C/C=C\C/C=C\C/C=C\C/C=C\C/C=C\CCC(=O)NCCNC(=O)C[C@H](O)C[C@@H](O)CC[C@@H]1C2C(=C[C@H](C)CC2OC(=O)C(C)(C)CC)C=C[C@@H]1C` (stereo partly drawn) [Compound I-1, (3R,7S,8S)-8-((3S,5R)-7-((2-((4Z,7Z,10Z,13Z,16Z,19Z)-docosa-4,7,10,13,16,19-hexaenamido)ethyl)amino)-3,5-dihydroxy-7-oxoheptyl)-3,7-dimethyl-1,2,3,7,8,8a-hexahydronaphthalen-1-yl 2,2-dimethylbutanoate], the “level of PCSK9 secreted from HepG2 cells” value was “no significant change” (6.25 μM, FIG. 1) and “decrease” (25 μM, FIG. 1).

For `CC/C=C\C/C=C\C/C=C\C/C=C\C/C=C\C/C=C\CCC(=O)NCCNC(=O)C[C@H](O)C[C@H](O)CCn1c(-c2ccc(F)cc2)c(-c2ccccc2)c(C(=O)Nc2ccccc2)c1C(C)C` [Compound I-22, 1-((3R,5R)-7-(2-(4Z,7Z,10Z,13Z,16Z,19Z)-docosa-4,7,10,13,16,19-hexaenamidoethylamino)-3,5-dihydroxy-7-oxoheptyl)-5-(4-fluorophenyl)-2-isopropyl-N,4-diphenyl-1H-pyrrole-3-carboxamide], the “level of PCSK9 secreted from HepG2 cells” value under setting [1] was “no significant change”.

As for `CC(C)c1c(C(=O)Nc2ccccc2)c(-c2ccccc2)c(-c2ccc(F)cc2)n1CC[C@@H](O)C[C@@H](O)CC(=O)O` [atorvastatin, reference compound], for the setting “1.25, 2.5, 5.0 and 10.0 μM, compared to the control, FIG. 1”, the “level of PCSK9 secretion from HepG2 cells” value is “significant increase”.

Take `CC(C)c1nc(N(C)S(C)(=O)=O)nc(-c2ccc(F)cc2)c1/C=C/[C@@H](O)C[C@@H](O)CC(=O)O` [rosuvastatin, reference compound]: the “level of PCSK9 secreted from HepG2 cells” value under setting [1] is recorded as “increase”.
